Our source for the IC50 values is patent publication US20100056524A1, “Compound” (priority 2008, published 2010).

Where a name gives a salt, the structure may show the parent alone. Where only a bound is given, the exact number is not on record here.

The target in the assay is T1, TBK1 (Homo sapiens, UniProt Q9UHD2).
T1 construct: All protein kinases were of human origin and encoded full length proteins, unless indicated otherwise; His6; made in house; host or cells: insect Sf21 cells
T1 sequence (Q9UHD2 1-729): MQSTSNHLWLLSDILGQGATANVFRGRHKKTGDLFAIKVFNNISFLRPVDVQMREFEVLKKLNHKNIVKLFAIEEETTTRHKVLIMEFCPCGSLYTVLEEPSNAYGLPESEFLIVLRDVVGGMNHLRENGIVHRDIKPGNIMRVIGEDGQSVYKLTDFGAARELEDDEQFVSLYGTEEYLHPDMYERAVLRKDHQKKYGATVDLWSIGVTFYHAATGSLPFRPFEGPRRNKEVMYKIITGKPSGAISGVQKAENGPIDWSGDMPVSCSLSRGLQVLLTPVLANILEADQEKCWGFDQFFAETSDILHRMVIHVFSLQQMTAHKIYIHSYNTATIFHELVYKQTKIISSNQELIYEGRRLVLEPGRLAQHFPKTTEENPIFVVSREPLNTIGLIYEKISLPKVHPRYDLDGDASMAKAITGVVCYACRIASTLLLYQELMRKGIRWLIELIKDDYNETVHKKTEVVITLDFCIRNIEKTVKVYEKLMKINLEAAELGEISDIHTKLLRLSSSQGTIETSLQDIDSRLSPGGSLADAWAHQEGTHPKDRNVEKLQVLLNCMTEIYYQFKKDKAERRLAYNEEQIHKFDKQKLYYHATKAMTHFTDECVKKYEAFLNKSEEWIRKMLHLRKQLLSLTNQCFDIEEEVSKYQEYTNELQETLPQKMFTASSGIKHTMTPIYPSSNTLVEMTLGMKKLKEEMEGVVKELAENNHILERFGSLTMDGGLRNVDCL
In words: TBK1 protein kinase assay ([γ-33P]ATP, P81 filterplates). Type of assay: biochemical. As to conditions: 50 μM ATP; read-out: Potency (TBK1 IC50 potency score). An outline of the steps: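 Human TBK1 assayed for 30 min with peptide substrate (300 μM), 50 μM [γ-33P]ATP and 10 mM magnesium acetate in 50 mM Tris/HCl pH 7.5, 0.1 mM EGTA, 0.1% 2-mercaptoethanol. Stopped with orthophosphoric acid and counted on P81 filters. IC50 from 10 compound concentrations.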
For the molecule `O=C(NCCCNc1nc(Nc2ccc3cn(CC4CC4)nc3c2)ncc1C1CC1)C1CCC1` [Example 194, Cyclobutanecarboxylic acid {3-[5-cyclopropyl-2-(2-cyclopropylmethyl-2H-indazol-6-ylamino)-pyrimidin-4-ylamino]-propyl}-amide], the IC50 – broadly, the concentration that gives 50% inhibition – was less than 0.1 µM.

As to `O=C1Cc2cc(Nc3ncc(C4CC4)c(NCCCNC(=O)C4CCC4)n3)ccc2N1` [Example 170, Cyclobutanecarboxylic acid {3-[5-cyclopropyl-2-(2-oxo-2,3-dihydro-1H-indol-5-ylamino)-pyrimidin-4-ylamino]-propyl}-amide], the 50% inhibitory concentration (IC50) is less than 0.1 µM.

Regarding `O=C(NCCCNc1nc(Nc2ccc3cnn(CC4CC4)c3c2)ncc1C1CC1)C1CCC1` [Example 193, Cyclobutanecarboxylic acid {3-[5-cyclopropyl-2-(1-cyclopropylmethyl-1H-indazol-6-ylamino)-pyrimidin-4-ylamino]-propyl}-amide], the IC50 is less than 0.1 µM.

Consider `CN1CCC(NC(=O)c2cccc(Nc3ncc(C4CC4)c(NCCCNC(=O)C4CCC4)n3)c2)CC1` [Example 82, 3-{4-[3-(Cyclobutanecarbonyl-amino)-propylamino]-5-cyclopropyl-pyrimidin-2-ylamino}-N-(1-methyl-piperidin-4-yl)-benzamide], for which the 50% inhibitory concentration (IC50) lay within 0.1 to 1 µM.

For `O=C(NCCCNc1nc(Nc2ccc3cn[nH]c3c2)ncc1C1CC1)C1CCC1` [Example 129, Cyclobutanecarboxylic acid {3-[5-cyclopropyl-2-(1H-indazol-6-ylamino)-pyrimidin-4-ylamino]-propyl}-amide. Hydrochloride], the half-maximal inhibitory concentration (IC50) was less than 0.1 µM.

For `O=C(NCCCNc1nc(Nc2ccc(Br)nc2)ncc1C1CC1)C1CCC1` [Example 97, Cyclobutanecarboxylic acid {3-[2-(6-bromo-pyridin-3-ylamino)-5-cyclopropyl-pyrimidin-4-ylamino]-propyl}-amide], the half-inhibitory concentration (IC50) was less than 0.1 µM.

As to `O=C(NCCCNc1nc(Nc2cccc(F)c2)ncc1C1CC1)C1CC1` [Example 25, Cyclopropanecarboxylic acid {3-[5-cyclopropyl-2-(3-fluoro-phenylamino)-pyrimidin-4-ylamino]-propyl}-amide], the IC50 lay within 0.1 to 1 µM.

`O=C(NCCCNc1nc(Nc2ccc(F)c(F)c2)ncc1C1CC1)C1CCC1` [Example 85, Cyclobutanecarboxylic acid {3-[5-cyclopropyl-2-(3,4-difluoro-phenylamino)-pyrimidin-4-ylamino]-propyl}-amide]: the concentration for half-maximal inhibition (IC50) is less than 0.1 µM.

Turning to `O=C(NCCCNc1nc(Nc2cncnc2)ncc1C1CC1)C1CCC1` [Example 149, Cyclobutanecarboxylic acid {3-[5-cyclopropyl-2-(pyrimidin-5-ylamino)-pyrimidin-4-ylamino]-propyl}-amide], the IC50 fell in the range of 1 to 10 µM.

For `CC(C)(c1cccc(Nc2ncc(C3CC3)c(NCCCNC(=O)C3CCC3)n2)c1)N1CCOCC1` [Example 145, Cyclobutanecarboxylic acid (3-{5-cyclopropyl-2-[3-(1-methyl-1-morpholin-4-yl-ethyl)-phenylamino]-pyrimidin-4-ylamino}-propyl)-amide], the IC50 was less than 0.1 µM.

For the molecule `O=C(NCCCNc1nc(Nc2ccc(OC3CCN(C4CC4)CC3)nc2)ncc1C1CC1)C1CCC1` [Example 188, Cyclobutanecarboxylic acid (3-{5-cyclopropyl-2-[6-(1-cyclopropyl-piperidin-4-yloxy)-pyridin-3-ylamino]-pyrimidin-4-ylamino}-propyl)-amide], the half-inhibitory concentration (IC50) was less than 0.1 µM.

As for `O=C(NCCCNc1nc(Nc2cccc(F)c2)ncc1C1CC1)c1ccco1` [Example 5, Furan-2-carboxylic acid{3-[5-cyclopropyl-2-(3-fluoro-phenylamino)-pyrimidin-4-ylamino]-propyl}-amide trifluoroacetic acid salt], the half-inhibitory concentration (IC50) lay in the range of 0.1 to 1 µM.

`CN(C)CCN(C)C(=O)c1ccc(Nc2ncc(C3CC3)c(NCCCNC(=O)C3CCC3)n2)cc1` [Example 176, 4-{4-[3-(Cyclobutanecarbonyl-amino)-propylamino]-5-cyclopropyl-pyrimidin-2-ylamino}-N-(2-dimethylamino-ethyl)-N-methyl-benzamide]: the half-inhibitory concentration (IC50) is less than 0.1 µM.

On to `NC(=O)c1cccc(Nc2ncc(C3CC3)c(NCCCNC(=O)c3cccs3)n2)c1` [Example 36, Thiophene-2-carboxylic acid {3-[2-(3-carbamoyl-phenylamino)-5-cyclopropyl-pyrimidin-4-ylamino]-propyl}-amide trifluoroacetic acid salt], for which the half-inhibitory concentration (IC50) was in the range of 0.1 to 1 µM.

Take `O=C(NCCCNc1nc(Nc2ccc(NC3CCOCC3)nc2)ncc1C1CC1)C1CCC1` [Example 207, Cyclobutanecarboxylic acid (3-{5-cyclopropyl-2-[6-(tetrahydro-pyran-4-ylamino)-pyridin-3-ylamino]-pyrimidin-4-ylamino}-propyl)-amide]: the half-inhibitory concentration (IC50) was less than 0.1 µM.

Take `COCCNC(=O)c1cccc(Nc2ncc(C3CC3)c(NCCCNC(=O)C3CCC3)n2)c1` [Example 73, 3-{4-[3-(Cyclobutanecarbonyl-amino)-propylamino]-5-cyclopropyl-pyrimidin-2-ylamino}-N-(2-methoxy-ethyl)-benzamide]: the IC50 is less than 0.1 µM.

`CN(C)[C@@H]1CCN(Cc2ccc(Nc3ncc(C4CC4)c(NCCCNC(=O)C4CCC4)n3)cn2)C1` [Example 159, Cyclobutanecarboxylic acid (3-{5-cyclopropyl-2-[6-((R)-3-dimethylamino-pyrrolidin-1-ylmethyl)-pyridin-3-ylamino]-pyrimidin-4-ylamino}-propyl)-amide]: the concentration for half-maximal inhibition (IC50) is less than 0.1 µM.

With `O=C(NCCCNc1nc(Nc2cncc(F)c2)ncc1C1CC1)C1CCC1` [Example 64, Cyclobutanecarboxylic acid {3-[5-cyclopropyl-2-(5-fluoro-pyridin-3-ylamino)-pyrimidin-4-ylamino]-propyl}-amide], the IC50 is less than 0.1 µM.

Turning to `CN(C)CCCN(C)C(=O)c1cccc(Nc2ncc(C3CC3)c(NCCCNC(=O)C3CCC3)n2)c1` [Example 79, 3-{4-[3-(Cyclobutanecarbonyl-amino)-propylamino]-5-cyclopropyl-pyrimidin-2-ylamino}-N-(3-dimethylamino-propyl)-N-methyl-benzamide], the concentration for half-maximal inhibition (IC50) is less than 0.1 µM.

With `Cn1cc(-c2ccc(Nc3ncc(C4CC4)c(NCCCNC(=O)C4CCC4)n3)cn2)cn1` [Example 115, Cyclobutanecarboxylic acid (3-{5-cyclopropyl-2-[6-(1-methyl-1H-pyrazol-4-yl)-pyridin-3-ylamino]-pyrimidin-4-ylamino}-propyl)-amide], the half-maximal inhibitory concentration (IC50) was less than 0.1 µM.

Turning to `O=C(NCCCNc1nc(Nc2cccc(Cl)c2)ncc1C1CC1)c1cccs1` [Example 55, Thiophene-2-carboxylic acid {3-[2-(3-chloro-phenylamino)-5-cyclopropyl-pyrimidin-4-ylamino]-propyl}-amide], the IC50 lay within 0.1 to 1 µM.

Turning to `O=C(NCCCNc1nc(Nc2ccc(N3CCCC3=O)cc2)ncc1C1CC1)C1CCC1` [Example 184, Cyclobutanecarboxylic acid (3-{5-cyclopropyl-2-[4-(2-oxo-pyrrolidin-1-yl)-phenylamino]-pyrimidin-4-ylamino}-propyl)-amide. xHCl], the IC50 is less than 0.1 µM.

For `CN(C)CCN(C)c1ccc(Nc2ncc(C3CC3)c(NCCCNC(=O)C3CCC3)n2)cn1` [Example 100, Cyclobutanecarboxylic acid [3-(5-cyclopropyl-2-{6-[(2-dimethylamino-ethyl)-methyl-amino]-pyridin-3-ylamino}-pyrimidin-4-ylamino)-propyl]-amide], the concentration for half-maximal inhibition (IC50) was less than 0.1 µM.

As for `CN1CCN(c2cccc(Nc3ncc(C4CC4)c(NCCCNC(=O)C4CCC4)n3)c2)CC1` [Example 91, Cyclobutanecarboxylic acid (3-{5-cyclopropyl-2-[3-(4-methyl-piperazin-1-yl)-phenylamino]-pyrimidin-4-ylamino}-propyl)-amide. Trifluoroacetic acid salt], the IC50 was less than 0.1 µM.

With `Nc1cccc(Nc2ncc(C3CC3)c(NCCCNC(=O)c3cccs3)n2)c1` [Example 69, Thiophene-2-carboxylic acid {3-[2-(3-amino-phenylamino)-5-cyclopropyl-pyrimidin-4-ylamino]-propyl}-amide], the half-inhibitory concentration (IC50) is less than 0.1 µM.

Regarding `O=C(O)c1cccc(Nc2ncc(C3CC3)c(NCCCNC(=O)c3cccs3)n2)c1` [Example 34, 3-(5-Cyclopropyl-4-{3-[(thiophene-2-carbonyl)-amino]-propylamino}-pyrimidin-2-ylamino)-benzoic acid trifluoroacetic acid salt], the IC50 was 0.1 to 1 µM.

In the case of `O=C(NCCCNc1nc(Nc2cccc(NC(=O)N3CCCC3)c2)ncc1C1CC1)c1cccs1` [Example 49, Pyrrolidine-1-carboxylic acid [3-(5-cyclopropyl-4-{3-[(thiophene-2-carbonyl)-amino]-propylamino}-pyrimidin-2-ylamino)-phenyl]-amide], the IC50 is less than 0.1 µM.
